Each structure is given as a SMILES string.

Results on 28 compounds are retold here after ChEMBL document CHEMBL4483862, “Open-source discovery of chemical leads for next-generation chemoprotective antimalarials” (2018).

For the test, the system named is Plasmodium berghei. The test can be described thus: Luciferase/luciferin-expressing antifolate-resistant parasites were used to infect a culture of HepG2 cells that were pre-incubated with compounds. Infected hepatocytes emit light due to the luciferase reaction. Assay results are presented as the percent inhibition of light emission compared to control. […]. Type of test: functional. As to conditions: sporozoite; for IC90: read-out: LUCIFERASE INFECTION ASSAY - IC90.

Setting [1] is: read-out: LUCIFERASE INFECTION ASSAY - IC50.

The IC50 is the concentration at which inhibition is half-maximal. By IC90 is commonly meant the concentration at which the effect reaches the 90% level. Consider `COC(=O)c1cccnc1Nc1ccc(NS(=O)(=O)c2ccc(F)c(F)c2)cc1`, for which the IC90 was greater than 10 µM. In addition, under setting [1], the IC50 was greater than 10 µM.
With `Cn1cccc1C(=O)OCC(=O)NCc1cccs1`, the IC90 is greater than 10 µM. Under setting [1], the half-inhibitory concentration (IC50) is greater than 10 µM.
`COc1ccccc1-n1c(SCC(=O)NNC(=O)c2ccc([N+](=O)[O-])cc2)nc2ccccc2c1=O`: the IC90 is greater than 10 µM. In addition, the IC50 (FFLUC_HILL_SLOPE 2.82, FFLUC_R_SQUARED 0.966, read-out: LUCIFERASE INFECTION ASSAY - IC50) is greater than 10 µM.
Regarding `COc1ccc2c(C)cc(SCc3nc(=O)c4c(-c5ccc(Cl)cc5)csc4[nH]3)nc2c1`, the IC90 was greater than 10 µM. The IC50 under setting [1] is greater than 10 µM.
In the case of `Cc1ccc(C(C)C)c(OCc2ccc(C(=O)N/N=C/c3cc(C)n(Cc4ccco4)c3C)cc2)c1`, the IC90 was greater than 10 µM. Besides, the half-inhibitory concentration (IC50) under setting [1] was greater than 10 µM.
Turning to `COc1ccc(-c2nc3ccc(NC(=O)Nc4ccc(C)cc4)cn3n2)cc1`, the IC90 was determined as 7.53 µM. Besides, the half-inhibitory concentration (IC50) (HEPG2TOX_HILL_SLOPE 50, HEPG2TOX_R_SQUARED 0.291, PBLUC_HILL_SLOPE 5.1, PBLUC_R_SQUARED 0.322, read-out: LUCIFERASE INFECTION ASSAY - IC50) amounted to 4.9 µM.
As for `Cc1nnc(NC(=O)CN2C(=O)COc3ccc(Cl)cc32)s1`, the IC90 is greater than 9.74 µM. The 50% inhibitory concentration (IC50) under setting [1] was greater than 9.74 µM.
Consider `CNc1nc2cnc(Nc3cccc(N(C)C)c3)cc2n1-c1cc(OC)c(OC)c(OC)c1`, for which the IC90 was greater than 10 µM. The IC50 under setting [1] is greater than 10 µM.
As for `O=C(NC1CC1)c1ccc(-c2cnc3c(Nc4cccc(OC(F)(F)C(F)F)c4)nccn23)cc1`, the IC90 was 2.49 µM. Also, where the note is “HEPG2TOX_HILL_SLOPE 8.49, HEPG2TOX_R_SQUARED 0.235, PBLUC_HILL_SLOPE 3.35, PBLUC_R_SQUARED 0.643, read-out: LUCIFERASE INFECTION ASSAY - IC50”, the IC50 worked out at 1.29 µM.
As for `Cc1nn(-c2ccccc2)c(N2CCCC2)c1/C=N/O`, the 90% effect concentration (IC90) was greater than 10 µM. The IC50 under setting [1] was greater than 10 µM.
Consider `Cc1ccc(OCCOC(=O)c2cc(=O)[nH]c3ccccc23)cc1`, for which the concentration for an effect of 90% (IC90) was greater than 10 µM. Moreover, the IC50 (FFLUC_HILL_SLOPE 2.13, FFLUC_R_SQUARED 0.116, read-out: LUCIFERASE INFECTION ASSAY - IC50) is greater than 10 µM.
In the case of `O=c1c2ccccc2nc(SCc2cn3cc(Br)ccc3n2)n1-c1ccccc1F`, the IC90 came to 3.99 µM. The IC50 (HEPG2TOX_HILL_SLOPE 9.92, HEPG2TOX_R_SQUARED 0.174, PBLUC_HILL_SLOPE 13.7, PBLUC_R_SQUARED 0.208, read-out: LUCIFERASE INFECTION ASSAY - IC50) came out at 3.4 µM.
On to `CC1(C)CN=C(N(C(=O)Nc2ccc(Cl)c(Cl)c2)c2ccccc2)S1`, for which the concentration for an effect of 90% (IC90) was greater than 8.37 µM. The IC50 under setting [1] was greater than 8.37 µM.
For the compound `O=C1C=CC(=O)N1c1cc(F)ccc1F`, the 90% effect concentration (IC90) was greater than 15.8 µM. For the same compound, the IC50 (FFLUC_HILL_SLOPE 1.16, FFLUC_R_SQUARED 0.312, PBLUC_HILL_SLOPE 23.3, PBLUC_R_SQUARED 0.503, read-out: LUCIFERASE INFECTION ASSAY - IC50) came to 15.2 µM.
Consider `CC(=O)Nc1ccccc1OCC(=O)NC(=O)NC(C)C1CC2CCC1C2` (stereo unspecified), for which the concentration for an effect of 90% (IC90) is greater than 10 µM. Under setting [1], the 50% inhibitory concentration (IC50) turned out to be 5.71 µM.
On to `CC(C)N1CCC(NC(=O)c2ccc(COc3ccc4ccccc4c3)o2)CC1`, for which the IC90 worked out at 9.06 µM. The IC50 (PBLUC_HILL_SLOPE 1.64, PBLUC_R_SQUARED 0.625, read-out: LUCIFERASE INFECTION ASSAY - IC50) is 2.37 µM.
In the case of `Cc1ccc(C)c(OCCSc2ccc(C(=O)NC3CC3)cn2)c1`, the IC90 came out at 3.93 µM. Under setting [1], the half-inhibitory concentration (IC50) came out at 3.35 µM.
Turning to `N#Cc1cccc(CN2CCN3C(C(=O)Nc4ccc(Oc5ccccc5)cc4)=COC3=NC2=O)c1`, the IC90 was greater than 10 µM. The IC50 (HEPG2TOX_HILL_SLOPE 5.43, HEPG2TOX_R_SQUARED 0.0351, read-out: LUCIFERASE INFECTION ASSAY - IC50) is greater than 10 µM.
For `CCC(C)c1ccc(NC(=O)c2ccc[nH]c2=S)cc1` (stereo unspecified), the IC90 is greater than 10 µM. In addition, the IC50 (FFLUC_HILL_SLOPE 16.3, FFLUC_R_SQUARED 0.684, PBLUC_HILL_SLOPE 0.824, PBLUC_R_SQUARED 0.804, read-out: LUCIFERASE INFECTION ASSAY - IC50) worked out at 7.03 µM.
Turning to `COCC(C)n1c(C)cc(C(=O)COC(=O)c2cccc(C)c2C)c1C` (stereo unspecified), the IC90 was 6.95 µM. Besides, where the note is “HEPG2TOX_HILL_SLOPE 0.0806, HEPG2TOX_R_SQUARED 0.082, PBLUC_HILL_SLOPE 4.05, PBLUC_R_SQUARED 0.617, read-out: LUCIFERASE INFECTION ASSAY - IC50”, the IC50 was 4.04 µM.
For `CC(C)(C)c1ccc(-c2cnc3cnc(-c4ccc(C(=O)N5CCOCC5)cc4)cn23)cc1`, the IC90 was greater than 7.49 µM. Also, the IC50 (PBLUC_HILL_SLOPE 4.5, PBLUC_R_SQUARED 0.623, read-out: LUCIFERASE INFECTION ASSAY - IC50) was 4.7 µM.
Consider `COc1cc(Nc2ncnc3ccsc23)cc(OC)c1`, for which the IC90 stood at 2.61 µM. Also, the IC50 under setting [1] stood at 0.968 µM.
With `CN(C)C(=O)CNC(=O)c1cc(-c2ccccc2)nc2c1cnn2Cc1ccccc1Cl`, the IC90 is greater than 10 µM. The IC50 (PBLUC_HILL_SLOPE 13.5, PBLUC_R_SQUARED 0.27, read-out: LUCIFERASE INFECTION ASSAY - IC50) was found to be 8.61 µM.
On to `C/C(=N\NC(=N)N)c1ccc(Br)cc1`, for which the concentration for an effect of 90% (IC90) was greater than 12.9 µM. The half-maximal inhibitory concentration (IC50) (HEPG2TOX_HILL_SLOPE 2.15, HEPG2TOX_R_SQUARED 0.936, PBLUC_HILL_SLOPE 0.739, PBLUC_R_SQUARED 0.608, read-out: LUCIFERASE INFECTION ASSAY - IC50) is 5.11 µM.
With `Cc1cc(C(=O)Cn2nnc3ccccc3c2=O)c(C)n1-c1ccccc1`, the IC90 came out at 0.0451 µM. Where the note is “HEPG2TOX_HILL_SLOPE 3.03, HEPG2TOX_R_SQUARED 0.216, PBLUC_HILL_SLOPE 10.9, PBLUC_R_SQUARED 0.324, read-out: LUCIFERASE INFECTION ASSAY - IC50”, the IC50 is 0.0369 µM.
For the compound `CCCNc1nc(-c2ccccc2)c(C(=O)OCC)cc1C#N`, the IC90 came out at 3.12 µM. The IC50 (HEPG2TOX_HILL_SLOPE 1.25, HEPG2TOX_R_SQUARED 0.958, PBLUC_HILL_SLOPE 3.81, PBLUC_R_SQUARED 0.673, read-out: LUCIFERASE INFECTION ASSAY - IC50) was 1.75 µM.
For `COc1ccc(S(=O)(=O)N2CCc3ccccc32)cc1C(=O)Oc1c(Cl)cc(Cl)c2ccc(C)nc12`, the IC90 is greater than 10 µM. The IC50 (PBLUC_HILL_SLOPE 13.5, PBLUC_R_SQUARED 0.253, read-out: LUCIFERASE INFECTION ASSAY - IC50) was greater than 10 µM.
On to `CC(C)n1ncc2cc(C(=O)Nc3nc4ccccc4s3)cnc21`, for which the IC90 was determined as 1.97 µM. In addition, the IC50 under setting [1] worked out at 0.00908 µM.
